Experimental findings from ChEMBL document CHEMBL4024712, “Synthesis, stability and mechanistic studies of potent anticryptococcal hexapeptides” (Eur J Med Chem, 2017) are described below.

By IC50 is commonly meant the midpoint of a concentration-inhibition curve. For orientation: MIC means the smallest concentration in the dilution series that meets the test's criterion for growth inhibition. The term MBC denotes the smallest concentration meeting the test's criterion for killing. As a reminder, the MFC is the smallest concentration meeting the test's criterion for killing the fungus.

Data set [1] has as its system Mycobacterium intracellulare. Briefly: Anti-bacterial activity against Mycobacterium intracellulare ATCC 23068 after 68 to 72 hrs by Alamar blue assay. Type of data set: functional, cell-based. On the technique in general: Alamar Blue is a resazurin reagent that responds to reducing activity.
Data set [2] concerns Pichia kudriavzevii. Briefly: Antifungal activity against Candida krusei ATCC 6258 after 18 to 24 hrs by Alamar blue assay. Type of data set: functional. The following applies: Pichia kudriavzevii, ATCC 6258; for IC50: read-out: IC50.
Data set [3] relates to Staphylococcus aureus. Briefly: Bactericidal activity against Staphylococcus aureus ATCC 29213 by CLSI method. It is filed as functional.
Data set [4] concerns Candida albicans. Briefly: Antifungal activity against Candida albicans ATCC 90028 after 18 to 24 hrs by Alamar blue assay. It is filed as functional.
Data set [5] relates to Escherichia coli. In words: Bactericidal activity against Escherichia coli ATCC 35218 by CLSI method. It is filed as functional.
In data set [6] the test system is Cryptococcus neoformans. Briefly: Fungicidal activity against Cryptococcus neoformans ATCC 90113 after 68 to 72 hrs by Alamar blue assay. Type of data set: functional.
The test system of data set [7] is Aspergillus fumigatus. Briefly: Antifungal activity against Aspergillus fumigatus ATCC 90906 after 68 to 72 hrs by Alamar blue assay. Type of data set: functional.
The test system of data set [8] is Pichia kudriavzevii. In words: Fungicidal activity against Candida krusei ATCC 6258 after 18 to 24 hrs by Alamar blue assay. It is filed as functional.
Data set [9] concerns Staphylococcus aureus. Briefly: Bactericidal activity against methicillin-resistant Staphylococcus aureus ATCC 33591 by CLSI method. Type of data set: functional.
For data set [10], the system named is Staphylococcus aureus. In words: Anti-bacterial activity against methicillin-resistant Staphylococcus aureus ATCC 33591 by CLSI method. Type of data set: functional. The following applies: for MIC: Staphylococcus aureus, ATCC 33591.
The test system of data set [11] is Nakaseomyces glabratus. Briefly: Antifungal activity against Candida glabrata ATCC 90030 after 18 to 24 hrs by Alamar blue assay. It is filed as functional. As to conditions: for MIC: Nakaseomyces glabratus, ATCC 90030.
The subject of data set [12] is Nakaseomyces glabratus. Briefly: Fungicidal activity against Candida glabrata ATCC 90030 after 18 to 24 hrs by Alamar blue assay. Type of data set: functional.
The test system of the next data set is Vero. Briefly: Cytotoxicity against African green monkey Vero cells up to 10 ug/ml after 48 hrs by neutral red dye based assay. It is filed as cell-based. As to conditions: chlorocebus sabaeus.
Data set [13] relates to Aspergillus fumigatus. In words: Fungicidal activity against Aspergillus fumigatus ATCC 90906 after 68 to 72 hrs by Alamar blue assay. It is filed as functional.
Another data set has as its system Pseudomonas aeruginosa. Briefly: Anti-bacterial activity against Pseudomonas aeruginosa ATCC 27853 by CLSI method. It is filed as functional.
The test system of data set [14] is Cryptococcus neoformans. Briefly: Antifungal activity against Cryptococcus neoformans ATCC 90113 after 68 to 72 hrs by Alamar blue assay. Type of data set: functional.
Data set [15] has as its system Candida albicans. In words: Fungicidal activity against Candida albicans ATCC 90028 after 18 to 24 hrs by Alamar blue assay. Type of data set: functional.
Data set [16] deals with Staphylococcus aureus. Briefly: Anti-bacterial activity against Staphylococcus aureus ATCC 29213 by CLSI method. Type of data set: functional.
A short description of data set [17]: Selectivity index ratio of cytotoxic concentration against African green monkey Vero cells to IC50 for Cryptococcus neoformans ATCC 90113. It is filed as toxicity. As to conditions: read-out: Selectivity Index.
In data set [18] the test system is Escherichia coli. Briefly: Anti-bacterial activity against Escherichia coli ATCC 35218 by CLSI method. It is filed as functional.
The test system of data set [19] is Lipid bilayer. In words: Binding affinity to EYPC/cholesterol small unilamellar vesicles at 0.1 uM by tryptophan fluorescence quenching assay. Type of data set: ADME.
Data set [20] relates to Lipid bilayer. Briefly: Binding affinity to EYPC/EYPG small unilamellar vesicles at 0.1 uM by tryptophan fluorescence quenching assay.
Data set [21] in a line: Proteolytic stability assessed as trypsin (unknown origin)-mediated compound hydrolysis at compound to trypsin ratio of 0.5 to […] measured after 24 hrs by RP-HPLC method. The following applies: human. Type of data set: ADME.

In brackets after ≈: the same amount, converted by molar mass. Activity calls are given as the source filed them. Non-standard residues stand in square brackets, D forms with d. Residues, ends and D or L forms follow the SMILES beside them. His(τ-Bzl) = N[C@@H](Cc1cn(Cc2ccccc2)cn1)C(=O)O; Phe(4-Me) = Cc1ccc(C[C@H](N)C(=O)O)cc1; 1Nal = N[C@@H](Cc1cccc2ccccc12)C(=O)O; Bta = N[C@@H](Cc1csc2ccccc12)C(=O)O; Cha = N[C@@H](CC1CCCCC1)C(=O)O; Orn = NCCC[C@H](N)C(=O)O

For the molecule `NCCC[C@H](N)C(=O)N[C@H](Cc1c[nH]c2ccccc12)C(=O)N[C@@H](CC1CCCCC1)C(=O)N[C@@H](Cc1csc2ccccc12)C(=O)N[C@H](Cc1ccccc1)C(=O)N[C@@H](Cc1cn(Cc2ccccc2)cn1)C(N)=O` (H-[Orn][dW][Cha][Bta][dF][His(τ-Bzl)]-NH2), the IC50 result is “Not Active” in data set [1] and 6.51 µg/mL (≈ 6.21 µM) in the data set on Pichia kudriavzevii [2]. For the same molecule, the MIC is 10 µg/mL (≈ 9.54 µM) in the data set on Pichia kudriavzevii [2]; 10 µg/mL (≈ 9.54 µM) in the data set with Candida albicans [4] (Candida albicans, ATCC 90028); 10 µg/mL (≈ 9.54 µM) with Aspergillus fumigatus [7] (Aspergillus fumigatus, ATCC 90906); 10 µg/mL (≈ 9.54 µM) with Staphylococcus aureus [10]; 10 µg/mL (≈ 9.54 µM) with Nakaseomyces glabratus [11]. Besides, the results for the MBC in the data set with Staphylococcus aureus [3], in the data set on Escherichia coli [5] and against Staphylococcus aureus [9] were 10 µg/mL (≈ 9.54 µM), 20 µg/mL (≈ 19.1 µM) and 20 µg/mL (≈ 19.1 µM), respectively. Besides, the MFC in the data set with Cryptococcus neoformans [6] came out at 1.25 µg/mL (≈ 1.19 µM); against Pichia kudriavzevii [8] it was 10 µg/mL (≈ 9.54 µM); against Nakaseomyces glabratus [12], 10 µg/mL (≈ 9.54 µM); in the data set on Aspergillus fumigatus [13] it was 10 µg/mL (≈ 9.54 µM). The Activity entry in the data set on Vero was “Non-Toxic”.
Consider `NCCC[C@H](N)C(=O)N[C@H](Cc1c[nH]c2ccccc12)C(=O)N[C@@H](CC1CCCCC1)C(=O)N[C@@H](Cc1cccc2ccccc12)C(=O)N[C@H](Cc1ccccc1)C(=O)N[C@@H](Cc1cn(Cc2ccccc2)cn1)C(N)=O` (H-[Orn][dW][Cha][1Nal][dF][His(τ-Bzl)]-NH2), for which the IC50 result (in data set [1]; in the data set on Pseudomonas aeruginosa) was “Not Active” in each case. The MIC is 10 µg/mL (≈ 9.59 µM) with Pichia kudriavzevii [2]; 20 µg/mL (≈ 19.2 µM) against Candida albicans [4] (Candida albicans, ATCC 90028); 2.5 µg/mL (≈ 2.4 µM) against Cryptococcus neoformans [14]; 10 µg/mL (≈ 9.59 µM) in the data set on Staphylococcus aureus [10]; 20 µg/mL (≈ 19.2 µM) against Nakaseomyces glabratus [11]; 10 µg/mL (≈ 9.59 µM) in the data set on Staphylococcus aureus [16] (Staphylococcus aureus, ATCC 29213). The MBC in the data set on Staphylococcus aureus [3] amounted to 10 µg/mL (≈ 9.59 µM); in the data set with Staphylococcus aureus [9] it was 20 µg/mL (≈ 19.2 µM). For the same molecule, the MFC in the data set with Candida albicans [15], against Nakaseomyces glabratus [12] and in the data set on Aspergillus fumigatus [13] was 20 µg/mL (≈ 19.2 µM) each time. Also, the Activity result in the data set on Vero is on record as “Non-Toxic”.
`CC[C@H](C)[C@H](NC(=O)[C@H](CC1CCCCC1)NC(=O)[C@@H](Cc1c[nH]c2ccccc12)NC(=O)[C@@H](N)CCCN)C(=O)N[C@@H](CC1CCCCC1)C(=O)N[C@@H](Cc1cn(Cc2ccccc2)cn1)C(N)=O` (H-[Orn][dW][Cha]I[Cha][His(τ-Bzl)]-NH2): the IC50 entry in data set [1] was “Not Active”; with Escherichia coli [18], “Not Active”; in the data set on Candida albicans [4] (Candida albicans, ATCC 90028, read-out: IC50), 17.4 µg/mL (≈ 18 µM); in the data set with Pseudomonas aeruginosa it was “Not Active”; in the data set on Aspergillus fumigatus [7], “Not Active”; with Staphylococcus aureus [16] (Staphylococcus aureus, ATCC 29213, read-out: IC50) it was 17.5 µg/mL (≈ 18.1 µM). For the same molecule, the selectivity ratio in [17] was in the range of 21 to 25. The MIC in the data set with Candida albicans [4] (Candida albicans, ATCC 90028) was found to be 20 µg/mL (≈ 20.7 µM); with Nakaseomyces glabratus [11], 20 µg/mL (≈ 20.7 µM). Moreover, the MFC against Cryptococcus neoformans [6] was found to be 1.25 µg/mL (≈ 1.3 µM); against Pichia kudriavzevii [8] it was 20 µg/mL (≈ 20.7 µM); with Candida albicans [15], 20 µg/mL (≈ 20.7 µM). In addition, the Activity entry with Vero and in the data set on Lipid bilayer [19] was “Non-Toxic” throughout. In addition, in the data set with Lipid bilayer [20], the result was Active.
On to `Cc1ccc(C[C@H](NC(=O)[C@@H](Cc2ccccc2)NC(=O)[C@@H](Cc2c[nH]c3ccccc23)NC(=O)[C@@H](N)CCCN)C(=O)N[C@H](Cc2ccccc2)C(=O)N[C@@H](CCCN)C(N)=O)cc1` (H-[Orn][dW][dF][Phe(4-Me)][dF][Orn]-NH2), for which the IC50 result in data set [1] was “Not Active”; in the data set with Pichia kudriavzevii [2] it was 15.5 µg/mL (≈ 17.5 µM); in the data set on Escherichia coli [18] (Escherichia coli, ATCC 35218, read-out: IC50), 16.5 µg/mL (≈ 18.6 µM); with Candida albicans [4], “Not Active”; in the data set with Pseudomonas aeruginosa, “Not Active”; in the data set with Aspergillus fumigatus [7] it was “Not Active”. Also, the IC50 in the data set on Cryptococcus neoformans [14] was 0.46 µg/mL (≈ 0.519 µM); with Staphylococcus aureus [10], “Not Active”; in the data set with Nakaseomyces glabratus [11], “Not Active”; in the data set with Staphylococcus aureus [16], “Not Active”. In addition, the MIC was determined as 20 µg/mL (≈ 22.5 µM) against Pichia kudriavzevii [2] and 0.63 µg/mL (≈ 0.71 µM) against Cryptococcus neoformans [14]. The selectivity ratio in [17] is 21 to 25. Moreover, the figures for the MFC in the data set with Cryptococcus neoformans [6] and in the data set with Pichia kudriavzevii [8] were 0.63 µg/mL (≈ 0.71 µM) and 20 µg/mL (≈ 22.5 µM), respectively. Besides, the Activity entry in the data set with Vero and in the data set with Lipid bilayer [19] was “Non-Toxic” throughout. In addition, the result with Lipid bilayer [20] was Active. The Stability entry in [21] was “Stable”.
